# According to the Kinase Knowledgebase extract (Sharma et al. 2016):
# Molecular target: EGFR (UniProt P00533)
# Sequence (P00533 whole entry, looked up): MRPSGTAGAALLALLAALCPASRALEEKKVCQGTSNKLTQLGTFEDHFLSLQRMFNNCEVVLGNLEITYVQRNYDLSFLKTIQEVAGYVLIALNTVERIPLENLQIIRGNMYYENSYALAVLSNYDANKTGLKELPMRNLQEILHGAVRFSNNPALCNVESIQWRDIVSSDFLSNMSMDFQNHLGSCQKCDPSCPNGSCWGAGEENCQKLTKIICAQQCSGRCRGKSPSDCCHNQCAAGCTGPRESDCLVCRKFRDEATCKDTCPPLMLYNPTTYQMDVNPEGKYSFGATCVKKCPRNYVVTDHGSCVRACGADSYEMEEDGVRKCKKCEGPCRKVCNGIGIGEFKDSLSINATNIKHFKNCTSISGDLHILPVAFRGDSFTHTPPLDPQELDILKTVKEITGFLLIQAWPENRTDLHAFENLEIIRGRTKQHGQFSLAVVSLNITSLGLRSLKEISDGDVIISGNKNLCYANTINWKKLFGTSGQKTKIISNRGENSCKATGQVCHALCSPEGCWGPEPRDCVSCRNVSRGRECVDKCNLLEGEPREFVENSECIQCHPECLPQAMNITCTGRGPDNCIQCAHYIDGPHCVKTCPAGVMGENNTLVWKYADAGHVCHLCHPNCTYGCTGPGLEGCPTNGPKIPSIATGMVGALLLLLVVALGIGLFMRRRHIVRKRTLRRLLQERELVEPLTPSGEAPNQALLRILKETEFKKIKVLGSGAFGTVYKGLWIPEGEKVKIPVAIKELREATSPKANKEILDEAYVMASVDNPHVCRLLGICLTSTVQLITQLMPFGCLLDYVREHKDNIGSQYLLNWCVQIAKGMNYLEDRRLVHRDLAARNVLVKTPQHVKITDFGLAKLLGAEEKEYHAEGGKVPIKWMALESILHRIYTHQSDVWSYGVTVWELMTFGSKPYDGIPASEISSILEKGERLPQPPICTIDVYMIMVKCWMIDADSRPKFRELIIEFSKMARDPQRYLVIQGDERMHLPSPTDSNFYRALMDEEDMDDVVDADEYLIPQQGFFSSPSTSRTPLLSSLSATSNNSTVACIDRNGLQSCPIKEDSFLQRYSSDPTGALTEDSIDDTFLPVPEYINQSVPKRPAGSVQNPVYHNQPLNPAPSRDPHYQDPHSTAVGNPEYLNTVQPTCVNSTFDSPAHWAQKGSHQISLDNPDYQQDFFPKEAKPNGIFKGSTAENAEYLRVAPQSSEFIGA
row,SMILES,IC50
1,C=CC(=O)Nc1cc2c(Nc3ccc(Br)cc3F)ncnc2cc1OCCOC(=O)CC(=O)OCC,246 nM
2,C=CC(=O)NCCCNc1cc2c(Nc3ccc(Br)cc3F)ncnc2cc1OCC1CCN(C(=O)CC)CC1,56 nM
3,C=CC(=O)NCCNc1cc2c(Nc3ccc(Br)cc3F)ncnc2cc1OCC1CCN(C)CC1,76 nM
4,C=CC(=O)NCCC(=O)Nc1cc2c(Nc3ccc(Br)cc3F)ncnc2cc1OCC1CCN(C)CC1,80 nM
5,C=CC(=O)Nc1cc2c(Nc3ccc(Br)cc3F)ncnc2cc1OCCNC(=O)CCCN(C)C,21 nM
6,C=CC(=O)NCCCNc1cc2c(Nc3ccc(Br)cc3F)ncnc2cc1OCC1CCN(C(C)=O)CC1,35 nM
7,C=CC(=O)Nc1cc2c(Nc3ccc(Br)c(F)c3F)ncnc2cc1OCCNC(=O)CCCN(C)C,568 nM
8,C=CC(=O)Nc1cc2c(Nc3ccc(Br)cc3F)ncnc2cc1OCCOC(=O)CC(=O)O,956 nM
9,C=CC(=O)Nc1cc2c(Nc3ccc(Br)cc3F)ncnc2cc1OCCNC(=O)CC(C)N(C)C (stereo not given),325 nM
10,C=CC(=O)Nc1cc2c(Nc3ccc(Br)c(Cl)c3F)ncnc2cc1OCCNC(=O)CCCN(C)C,28 nM
11,C=CC(=O)Nc1cc2c(Nc3ccc(Br)cc3F)ncnc2cc1OCCNC(=O)CCC,32 nM
12,C=CC(=O)Nc1cc2c(Nc3ccc(Br)cc3F)ncnc2cc1OCC(=O)NCCN(C)C,652 nM
13,C=CC(=O)NCCCNc1cc2c(Nc3ccc(Br)cc3F)ncnc2cc1OCC1CCN(C)CC1,11 nM
14,C=CC(=O)NCCCNc1cc2c(Nc3ccc(F)c(F)c3F)ncnc2cc1OCC1CCN(C)CC1,12 nM
15,C=CC(=O)NCCCNc1cc2c(Nc3ccc(Br)cc3F)ncnc2cc1OCC1CCN(C(=O)C=C)CC1,68 nM
